Assay results as given in patent publication US20230201221A1, “USE OF TERPENOIDS IN THE TREATMENT OR PREVENTION OF FIBROTIC DISEASES” (ARJIL BIOTECH HOLDING COMPANY LIMITED, priority 2020, published 2023).
Several values for one entry are separate records, joined by “and”; a condition that tells them apart may be missing. Equal values may be shown once.

Legend:
Type in all cases: in vivo
[1] = tested on: ICR mice; experiment: Bleomycin-induced pulmonary fibrosis in mice: lung hydroxyproline content; details: extract 1.0 g/kg; AH, BH, DH 50 mg/kg; p<0.001
Protocol: (§1) Mice were divided into fifth groups with 5 animals per group according to body weight: control group, BLM group, BLM+DEX group (7.5 mg/kg), BLM+ACH dosage group (50 mg/kg), and BLM+ACM dosage group (25 mg/kg), BLM+ACH dosage group (50 mg/kg), and BLM+ACM dosage group (25 mg/kg) BLM+AH dosage group (50 mg/kg), and BLM+AM dosage group (25 mg/kg) BLM+BH dosage group (50 mg/kg), and BLM+BM dosage group (25 mg/kg) BLM+CH dosage group (50 mg/kg), and BLM+CM dosage group (25 mg/kg) BLM+DH dosage group (50 mg/kg), and BLM+DM dosage group (25 mg/kg) BLM+EH dosage group (50 mg/kg), and BLM+EM dosage group (25 mg/kg) BLM. Pulmonary fibrosis (PF) was established in mice via a single intratracheal administration of BLM at 7.5 mg/kg mg/kg body weight. Different doses of samples were intragastrically administered daily for 21 days after BLM injury, and DEX was used as the positive control. Control and model groups received an equal volume of vehicle (0.9% NaCl) using the same schedule and route of administration.
The contents of hydroxyproline were analyzed in lung tissue following the instruction of hydroxyproline assay kit (Biosource International Inc., Sunnyvale, Calif., USA). The pulmonary tissues of mice were ground and homogenized with 1 ml of 6 mol/L […] solution, hydrolyzed at 95° C. for 5 hours, and the pH value was adjusted to 6.0-6.8. According to the instructions, the corresponding reagents were added to the reaction system and mixed thoroughly and then incubated for 15 minutes at 60° C. After cooling, the supernatants were collected after centrifuging at 3500 rpm for 10 minutes. The absorbance value of the supernatant from the samples was measured at 550 nm by a spectrophotometer and calculated for the contents of hydroxyproline on each group.

[2] = tested on: MPO; experiment: Bleomycin-induced pulmonary fibrosis in mice: lung myeloperoxidase (MPO) assay; details: compared with BLM group, p<0.001
Protocol: as §1
The pulmonary MPO activity was a reliable index for estimating the infiltration of inflammatory cells in lungs. The lung tissues were homogenized and the MPO levels were detected with the kits according to manufacturer's instruction.

[3] = tested on: New Zealand White rabbits; experiment: Hypercholesterolemic rabbit model: liver histology scores (steatosis, inflammation, fibrosis); design: key to Score of Fibrosis: 0: none; 1: mild perisinusoidal or periportal; 2: perisinusoidal and portal/periportal; 3: bridging fibrosis; 4: cirrhosis; key to Score of Steatosis Location: 0: zone 3, centrilobular; 1: zone 2, mid-zonal; 3: panacinar; details: individual liver slides; 0.5% cholesterol chow plus 10 mg/kg Lovastatin, 1% ARH003, 1% ARH004 or 10 mg/kg AR101-DS2; 12-week study
[4] = tested on: ICR mice; experiment: Bleomycin-induced pulmonary fibrosis in mice: body weight, lung weight, lung index; details: for Pulmonary index: (lung weight/body weight)×100
Protocol: (§2) Specific pathogen-free ICR mice (males) (body weights 18-22 g) were purchased from the BioLASCO Taiwan Co., Ltd. (Taipei, Taiwan). The animals were housed in Plexiglas cages at a constant temperature of 22±1° C. and a relative humidity of 55±5% on a 12 h dark-light cycle for at least 2 weeks before the experiment. Animals were provided food and water ad libitum. All experimental procedures were performed according to the guidelines of the Institutional Animal Ethics Committee, and the protocol was approved by the Committee for the Purpose of Control and Supervision of Experiments on Animals.
as §1
Mouse body weights were recorded daily. Mice were sacrificed on the 21th day using excess chloral hydrate hydrochloride anesthesia. Blood was obtained for ELISA analyses, and whole lungs were removed and weighed. The right lungs were fixed in 10% formalin, dehydrated, and embedded in paraffin. The left lungs were used to determine hydroxyproline. The pulmonary coefficient was calculated using the following equation: lung weight/body weight×100%
1. Group I: control; 2. Group II: mice received single intraperitoneal injection of BLM (7.5 mg/kg BW) 3. Group III: single dose (ACH, 0.5 g/kg) 4. Group IV: Single dose (ACM, 1.0 g/kg) 5. […] Group VII: purified AR101-DS2 (50 mg/kg) 8. Group VIII: purified AR101-DS2 (25 mg/kg) 7. Group VII: purified AR101-DS4 (50 mg/kg) 8. Group VIII: purified AR101-DS4 (25 mg/kg) 7. […] Group VII: purified ARH013-RA1 (50 mg/kg) 8. Group VIII: purified ARH013-RA1 (25 mg/kg)

[5] = tested on: TNF-α, IL-1β, IL-6 and TGF-β; experiment: Bleomycin-induced pulmonary fibrosis in mice: pro-inflammatory cytokines by ELISA; details: extract 1.0 g/kg; BH, DH 50 mg/kg; after BLM challenge; p<0.001
Protocol: as §1, with “administration. […]” for “administration.”
The serum concentration of the pro-inflammatory cytokines (i.e. tumor necrosis factor-α (TNF-α), interleukin-6 (IL-6), and IL-1β) in serum were assessed with relevant enzyme-linked immunosorbent assay (ELISA) kits (Biosource International Inc., Sunnyvale, Calif., USA), based on the manufacturer's instructions.

[6] = tested on: C57BL/6 mice; experiment: Cisplatin-induced renal injury in mice: serum CRE and BUN; details: extracts at 1000 mg/kg; compared to cisplatin-stimulated group, p<0.001
Protocol: Determination of biochemical parameters Serum creatinine and serum urea are assessed using colorimetric kits according to manufacturer's instructions. Kits of the former markers are purchased from (HUMAN Diagnostics Worldwide, Magdeburg, Germany) with a chemical analyzer (Roche Diagnostics, Cobas Mira Plus, Rotkreuz, Switzerland).
as §2, with “Seven-to-eight-week-old male C57BL/6” for “Specific pathogen-free ICR”, “are obtained” for “(males) (body weights 18-22 g) were purchased”, “are” for “were”, “is” for “was”
Renal fibrosis is induced via multiple injections of low-dose cisplatin. Intraperitoneal injections of cisplatin (5 mg/kg/injection; P4394, Sigma-Aldrich, St Louis, Mo.) are performed at 0, 1, and 3 weeks, for a total of 3 injections. Mice are sacrificed at 6 weeks after the first dose of cisplatin (n=6). To analyze the effects of samples, mice are given daily intraperitoneal injections for 7 days, starting from 4 weeks after first dose of cisplatin, and sacrificed at […] (n=6).

[7] = 25 mg/kg intragastric daily for 21 days after BLM
[8] = 50 mg/kg intragastric daily for 21 days after BLM

Row | Compound | hydroxyproline (HP) content in lung tissue [1] | lung MPO activity [2] | Score of Fibrosis [3] | Score of Inflammation [3] | Score of Steatosis Grade [3] | Score of Steatosis Location [3] | Final body mass [4, 7] [g] | Pulmonary mass [4, 7] [g] | Pulmonary index [4, 7] | Final body mass [4, 8] [g] | Pulmonary mass [4, 8] [g] | Pulmonary index [4, 8] | lung index, result in words ([4]; high-dose groups (ACH 1.0 g/kg; BH, DH 50 mg/kg), vs bleomycin-administered animals) | TNF-α, IL-1β, IL-6 and TGF-β production [5] | renal protection: normalization of serum CRE and BUN [6]
1 | C=C(CC[C@@H](C)[C@H]1CC[C@H]2C3=C(C(=O)C[C@]12C)[C@@]1(C)CC[C@@H](O)[C@](C)(O)[C@@H]1C[C@@H]3O)[C@@H](C)C(=O)O (racemic) [AR101-DS1, RS-Antcin K] | reduced lung HP | evidently suppressed the MPO activities |  |  |  |  |  |  |  |  |  |  |  |  | 
2 | Dehydrosulphurenic acid/Sulphurenic acid [AR101-DS2] | reduced lung HP | evidently suppressed the MPO activities | 0 | 1 (mild, 2 foci per 200 field) (2×) and 2 (moderate, 2-4 foci per 200 field) | 3 (>66%) (2×) and 1 (5-33%) | 2 and 1 and 0 | 37.91 ± 0.30 | 0.48 ± 0.01 | 1.26 ± 0.03 | 39.7 ± 0.21 | 0.39 ± 0.01 | 1.01 ± 0.02 | significant decrease in the lung index | improved TNF-α, IL-1β, IL-6 and TGF-β production | 
3 | CC[C@H](C)C(=O)O[C@H]1C[C@@H](C)C=C2C=C[C@H](C)[C@H](CC[C@@H]3C[C@@H](O)CC(=O)O3)[C@H]21 [L, Lovastatin, reference compound] |  |  | 0 (2×) and 1 | 1 (mild, 2 foci per 200 field) and 0 and 2 (moderate, 2-4 foci per 200 field) | 2 (33-66%) (2×) and 0 (low- to medium-power evaluation of parenchymal involvement <5%) | 1 (2×) and 0 |  |  |  |  |  |  |  |  | 
4 | C=C(CC[C@@H](C(=O)O)[C@H]1CC[C@@]2(C)C3=CC[C@H]4C(C)(C)[C@@H](O)CC[C@]4(C)C3=CC[C@]12C)C(C)C [AR101-DS4, Dehydroeburicoic Acid] |  |  |  |  |  |  |  |  |  |  |  |  |  |  | significant renal protection effect
